Experimental data taken from patent publication US20240101576A1, “HETEROCYCLIC INHIBITORS OF EGFR AND/OR HER2, FOR USE IN THE TREATMENT OF CANCER” (Scorpion Therapeutics, Inc., priority 2020, published 2024).

Assays:
Format in all cases: cell-based
EGFR WT (Ba/F3 cells) = target: T1, EGFR WT (Ba/F3 cells) (Homo sapiens, UniProt P00533); assay: Inhibitor activity on EGFR-dependent cell growth (CellTiter-Glo, 72 h), Ba/F3 EGFR WT; conditions: read-out: BaF3 WT IC50
T1 construct: expressed in transfected cells; host or cells: Ba/F3 (murine pro-B cells), retroviral transduction, puromycin selection, maintained with EGF
Summary of the method: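 This growth assay used Ba/F3 cells that depend on wild-type EGFR and are kept in EGF without IL3. Compounds were made up as 10 mM DMSO stocks and diluted 3-fold over 10 points. 120 nL went onto 600 cells/well. After 72 hours, 40 μL CellTiter-Glo was added and luminescence read on EnVision after 30 min.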

[1] = target: T2, EGFR exon 20 ASV Ins V769_D770 (Ba/F3 cells) (Homo sapiens, UniProt P00533, INS769ASV); assay: Inhibitor activity on EGFR phosphorylation (pEGFR AlphaLISA, 2 h), Ba/F3 EGFR exon 20 ASV Ins; conditions: EGFR phosphorylation, AlphaLISA, 2 hours; read-out: ASV IC50 (pEGFR)
T2 construct: expressed in transfected cells; host or cells: Ba/F3 (murine pro-B cells), retroviral transduction, puromycin selection, IL3-independent pool
Source text: Example B. Inhibitor Activity on EGFR phosphorylation (pEGFR)
EGFR mutant Ba/F3 cells were generated by transduction with retrovirus containing vectors expressing EGFR L858R, EGFR exon 19del, EGFR L858R/C797S, EGFR exon 20 NPG Ins D770_N771, EGFR exon 20 ASV Ins V769_D770, or EGFR exon 20 SVD Ins D770_N771 genes along with a puromycin selection marker. Transduced cells are selected with puromycin for 7 days and are then be transferred into culture media without Interleukin 3 (IL3). Surviving cells are confirmed to express EGFR by Western blot and maintained as a pool. CUTO14 cells were obtained from Dr. Robert C. Doebele at the University of Colorado. The IC50 date are included in Table 6 and Table 7.
1.1 Cells are harvested from flask into cell culture medium and the cell number counted.
1.2 Cells are diluted with culture medium to the desired density and 40 μL of cell suspension is added into each well of 384-well cell culture plate and the seeding density is 50K cells/well (Ba/F3) or 12.5K cells/well (CUTO14).
2 Compound Preparation and Treatment
2.1 Test compounds are dissolved to 10 mM in a DMSO stock solution. 45 μL of stock solution is transferred to a 384 polypropylene plate (pp-plate). Perform 3-fold, 10-point dilution via transferring 15 μL compound into 30 μL DMSO using a TECAN (EVO200) liquid handler.
2.2 Spin plates at room temperature at 1,000 RPM for 1 minute.
2.3 Transfer 5 nL of diluted compound from compound source plate into the cell plate.
2.4 After compound treatment for 2 hours, perform pEGFR detection by AlphaLISA for compound treatment plates as described in “Detection” section.
3 Detection by pEGFR AlphaLISA (Perkin-Elmer)
3.1 Plates are removed from incubators and equilibrated at room temperature for 10 minutes, and media was removed
3.2 10 μL of lysis buffer is added and plates shaken at 600 rpm for 1 hr.
3.3 Prepare acceptor mix just before use and dispense 5 μL of acceptor mix to all the wells. Shake 350 rpm for Ihr in the dark
3.4 Prepare donor mix under low light conditions prior to use. Dispense 5 μL of donor mix to all the wells. Mix well on the shaker, seal and wrap in aluminum foil and incubate 1.5 hrs at room temperature in the dark
3.5 Transfer 18.5 μL mixture to OptiPlate 384, and read using an Envision. The IC50 date were included in Table 6 and Table 7.

[2] = target: T3, EGFR exon 20 SVD Ins D770_N771 (Ba/F3 cells) (Homo sapiens, UniProt P00533, INS770SVD); assay: Inhibitor activity on EGFR-dependent cell growth (CellTiter-Glo, 72 h), Ba/F3 EGFR exon 20 SVD Ins; conditions: read-out: BaF3 SVD IC50
T3 construct: expressed in transfected cells; host or cells: Ba/F3 (murine pro-B cells), retroviral transduction, puromycin selection, IL3-independent pool
Summary of the method: (§1)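 IC50s derive from a sigmoidal dose–response fit of CellTiter-Glo signal. The signal was normalised between […]-treated cells and cell-free medium. Ba/F3 mutant-EGFR cells, seeded at 400–800/well depending on the line, had 72 h of exposure to a 10-point, 3-fold compound series.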

[3] = target: T4, EGFR exon 20 FQEA Ins A763_V764 (Ba/F3 cells) (Homo sapiens, UniProt P00533, INS763FQEA); assay: Inhibitor activity on EGFR-dependent cell growth (CellTiter-Glo, 72 h), Ba/F3 EGFR exon 20 FQEA Ins; conditions: read-out: BaF3 FQEA IC50
T4 construct: expressed in transfected cells; host or cells: Ba/F3 (murine pro-B cells), retroviral transduction, puromycin selection, IL3-independent pool
Summary of the method: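 Compounds, serially diluted 3-fold over 10 points in DMSO and added at 120 nL per well, act on Ba/F3 EGFR-mutant cells for 72 h. Seeding is 800 (exon 19del, FQEA), 600 (L858R/C797S) or 400 (L858R) cells/well. CTG luminescence is fitted with a four-parameter logistic curve to give IC50.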

[4] = target: T2, EGFR exon 20 ASV Ins V769_D770 (Ba/F3 cells); assay: Inhibitor activity on EGFR-dependent cell growth (CellTiter-Glo, 72 h), Ba/F3 EGFR exon 20 ASV Ins; conditions: read-out: BaF3 ASV IC50
Summary of the method: as §1

[5] = target: T5, EGFR exon 20 NPG Ins D770_N771 (Ba/F3 cells) (Homo sapiens, UniProt P00533, INS770NPG); assay: Inhibitor activity on EGFR-dependent cell growth (CellTiter-Glo, 72 h), Ba/F3 EGFR exon 20 NPG Ins; conditions: read-out: BaF3 NPG IC50
T5 construct: expressed in transfected cells; host or cells: Ba/F3 (murine pro-B cells), retroviral transduction, puromycin selection, IL3-independent pool
Summary of the method: as §1

T5 sequence (P00533 with tags, fused parts or gaps INS770NPG): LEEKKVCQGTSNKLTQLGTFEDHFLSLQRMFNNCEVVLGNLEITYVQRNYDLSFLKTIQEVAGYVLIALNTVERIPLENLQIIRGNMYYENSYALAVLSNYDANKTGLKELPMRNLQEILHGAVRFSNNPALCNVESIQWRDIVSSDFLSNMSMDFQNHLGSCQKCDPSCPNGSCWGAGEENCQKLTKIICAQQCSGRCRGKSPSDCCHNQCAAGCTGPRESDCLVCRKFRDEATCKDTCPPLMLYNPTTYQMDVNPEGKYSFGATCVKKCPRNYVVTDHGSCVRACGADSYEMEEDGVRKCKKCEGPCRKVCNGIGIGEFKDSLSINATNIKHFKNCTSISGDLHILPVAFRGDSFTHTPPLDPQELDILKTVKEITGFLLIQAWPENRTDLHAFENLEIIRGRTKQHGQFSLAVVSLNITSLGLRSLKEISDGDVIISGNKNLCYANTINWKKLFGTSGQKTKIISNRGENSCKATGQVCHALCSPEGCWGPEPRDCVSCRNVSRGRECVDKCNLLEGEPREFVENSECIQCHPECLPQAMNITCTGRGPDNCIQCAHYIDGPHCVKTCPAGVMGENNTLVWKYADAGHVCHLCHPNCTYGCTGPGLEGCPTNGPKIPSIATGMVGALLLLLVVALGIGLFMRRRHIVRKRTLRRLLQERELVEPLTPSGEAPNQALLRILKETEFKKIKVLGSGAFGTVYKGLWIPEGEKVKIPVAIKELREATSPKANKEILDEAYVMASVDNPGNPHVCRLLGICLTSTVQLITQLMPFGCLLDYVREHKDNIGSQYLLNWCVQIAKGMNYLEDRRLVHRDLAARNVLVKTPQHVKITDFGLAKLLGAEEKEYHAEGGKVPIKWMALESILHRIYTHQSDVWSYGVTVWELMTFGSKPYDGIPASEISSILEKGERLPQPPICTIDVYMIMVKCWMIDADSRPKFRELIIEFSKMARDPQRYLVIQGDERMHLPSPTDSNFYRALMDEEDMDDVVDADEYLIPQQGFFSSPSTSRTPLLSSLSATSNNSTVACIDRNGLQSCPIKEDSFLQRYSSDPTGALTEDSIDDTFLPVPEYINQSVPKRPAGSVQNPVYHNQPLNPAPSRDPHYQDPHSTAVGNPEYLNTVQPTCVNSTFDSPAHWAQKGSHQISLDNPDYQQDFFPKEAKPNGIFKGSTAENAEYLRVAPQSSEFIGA
T1 sequence (P00533 25-1210): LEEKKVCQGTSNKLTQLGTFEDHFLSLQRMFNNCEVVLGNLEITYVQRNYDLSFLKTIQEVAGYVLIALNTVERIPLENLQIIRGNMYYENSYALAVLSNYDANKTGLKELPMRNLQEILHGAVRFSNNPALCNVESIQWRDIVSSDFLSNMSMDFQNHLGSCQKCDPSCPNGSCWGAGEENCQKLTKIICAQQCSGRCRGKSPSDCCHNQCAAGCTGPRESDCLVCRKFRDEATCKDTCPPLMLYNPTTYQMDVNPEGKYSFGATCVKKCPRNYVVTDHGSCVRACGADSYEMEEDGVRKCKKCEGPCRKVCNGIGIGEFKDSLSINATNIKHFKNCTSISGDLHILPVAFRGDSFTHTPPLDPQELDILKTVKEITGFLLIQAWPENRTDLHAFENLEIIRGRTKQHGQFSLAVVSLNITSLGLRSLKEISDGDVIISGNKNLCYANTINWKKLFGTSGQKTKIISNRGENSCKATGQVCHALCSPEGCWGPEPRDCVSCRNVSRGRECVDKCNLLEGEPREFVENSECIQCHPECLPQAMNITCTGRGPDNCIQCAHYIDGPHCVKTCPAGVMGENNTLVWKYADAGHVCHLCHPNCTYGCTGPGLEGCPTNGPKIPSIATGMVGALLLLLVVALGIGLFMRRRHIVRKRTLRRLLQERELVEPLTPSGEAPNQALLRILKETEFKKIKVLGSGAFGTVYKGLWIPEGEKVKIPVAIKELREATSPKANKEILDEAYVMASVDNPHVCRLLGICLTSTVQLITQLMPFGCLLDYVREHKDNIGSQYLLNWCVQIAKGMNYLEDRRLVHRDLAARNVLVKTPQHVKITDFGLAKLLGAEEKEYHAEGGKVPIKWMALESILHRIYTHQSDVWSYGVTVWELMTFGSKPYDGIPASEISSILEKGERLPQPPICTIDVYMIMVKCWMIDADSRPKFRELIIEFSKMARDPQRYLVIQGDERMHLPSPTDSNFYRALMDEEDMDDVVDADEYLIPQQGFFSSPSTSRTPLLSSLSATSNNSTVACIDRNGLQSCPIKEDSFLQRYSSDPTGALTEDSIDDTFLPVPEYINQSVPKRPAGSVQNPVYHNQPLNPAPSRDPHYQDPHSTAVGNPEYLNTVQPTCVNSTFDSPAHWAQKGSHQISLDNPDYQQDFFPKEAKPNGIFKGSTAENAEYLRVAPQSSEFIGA
T4 sequence (P00533 with tags, fused parts or gaps INS763FQEA): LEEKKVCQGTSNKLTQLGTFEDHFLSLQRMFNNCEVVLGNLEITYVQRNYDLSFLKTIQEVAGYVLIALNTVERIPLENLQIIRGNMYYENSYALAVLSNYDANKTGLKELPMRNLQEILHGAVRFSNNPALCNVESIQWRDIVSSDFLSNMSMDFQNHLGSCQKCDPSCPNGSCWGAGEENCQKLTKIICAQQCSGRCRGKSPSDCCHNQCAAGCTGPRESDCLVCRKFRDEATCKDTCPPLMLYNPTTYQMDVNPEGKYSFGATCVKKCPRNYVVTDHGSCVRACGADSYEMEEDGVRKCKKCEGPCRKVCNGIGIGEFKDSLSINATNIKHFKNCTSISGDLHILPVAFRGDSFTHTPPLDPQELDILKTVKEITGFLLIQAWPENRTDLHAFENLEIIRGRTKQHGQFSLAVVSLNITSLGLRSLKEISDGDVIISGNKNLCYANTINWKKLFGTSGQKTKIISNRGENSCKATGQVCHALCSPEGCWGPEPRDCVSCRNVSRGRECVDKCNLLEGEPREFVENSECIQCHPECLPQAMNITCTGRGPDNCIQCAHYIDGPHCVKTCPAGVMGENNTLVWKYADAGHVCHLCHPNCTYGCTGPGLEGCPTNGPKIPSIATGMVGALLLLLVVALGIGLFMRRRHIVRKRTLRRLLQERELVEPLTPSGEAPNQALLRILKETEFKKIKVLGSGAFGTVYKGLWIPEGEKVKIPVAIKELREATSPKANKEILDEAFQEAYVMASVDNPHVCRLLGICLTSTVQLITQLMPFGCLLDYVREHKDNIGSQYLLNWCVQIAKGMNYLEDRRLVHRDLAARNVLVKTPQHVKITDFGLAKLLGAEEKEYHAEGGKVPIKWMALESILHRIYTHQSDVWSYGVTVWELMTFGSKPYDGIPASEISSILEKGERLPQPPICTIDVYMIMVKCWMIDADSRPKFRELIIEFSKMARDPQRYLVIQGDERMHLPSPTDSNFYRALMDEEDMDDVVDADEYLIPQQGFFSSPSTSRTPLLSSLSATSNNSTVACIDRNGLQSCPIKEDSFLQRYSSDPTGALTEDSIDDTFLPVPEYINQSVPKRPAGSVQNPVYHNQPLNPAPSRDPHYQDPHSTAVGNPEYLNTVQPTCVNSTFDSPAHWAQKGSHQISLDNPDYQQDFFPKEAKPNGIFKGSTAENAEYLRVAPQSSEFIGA
T2 sequence (P00533 with tags, fused parts or gaps INS769ASV): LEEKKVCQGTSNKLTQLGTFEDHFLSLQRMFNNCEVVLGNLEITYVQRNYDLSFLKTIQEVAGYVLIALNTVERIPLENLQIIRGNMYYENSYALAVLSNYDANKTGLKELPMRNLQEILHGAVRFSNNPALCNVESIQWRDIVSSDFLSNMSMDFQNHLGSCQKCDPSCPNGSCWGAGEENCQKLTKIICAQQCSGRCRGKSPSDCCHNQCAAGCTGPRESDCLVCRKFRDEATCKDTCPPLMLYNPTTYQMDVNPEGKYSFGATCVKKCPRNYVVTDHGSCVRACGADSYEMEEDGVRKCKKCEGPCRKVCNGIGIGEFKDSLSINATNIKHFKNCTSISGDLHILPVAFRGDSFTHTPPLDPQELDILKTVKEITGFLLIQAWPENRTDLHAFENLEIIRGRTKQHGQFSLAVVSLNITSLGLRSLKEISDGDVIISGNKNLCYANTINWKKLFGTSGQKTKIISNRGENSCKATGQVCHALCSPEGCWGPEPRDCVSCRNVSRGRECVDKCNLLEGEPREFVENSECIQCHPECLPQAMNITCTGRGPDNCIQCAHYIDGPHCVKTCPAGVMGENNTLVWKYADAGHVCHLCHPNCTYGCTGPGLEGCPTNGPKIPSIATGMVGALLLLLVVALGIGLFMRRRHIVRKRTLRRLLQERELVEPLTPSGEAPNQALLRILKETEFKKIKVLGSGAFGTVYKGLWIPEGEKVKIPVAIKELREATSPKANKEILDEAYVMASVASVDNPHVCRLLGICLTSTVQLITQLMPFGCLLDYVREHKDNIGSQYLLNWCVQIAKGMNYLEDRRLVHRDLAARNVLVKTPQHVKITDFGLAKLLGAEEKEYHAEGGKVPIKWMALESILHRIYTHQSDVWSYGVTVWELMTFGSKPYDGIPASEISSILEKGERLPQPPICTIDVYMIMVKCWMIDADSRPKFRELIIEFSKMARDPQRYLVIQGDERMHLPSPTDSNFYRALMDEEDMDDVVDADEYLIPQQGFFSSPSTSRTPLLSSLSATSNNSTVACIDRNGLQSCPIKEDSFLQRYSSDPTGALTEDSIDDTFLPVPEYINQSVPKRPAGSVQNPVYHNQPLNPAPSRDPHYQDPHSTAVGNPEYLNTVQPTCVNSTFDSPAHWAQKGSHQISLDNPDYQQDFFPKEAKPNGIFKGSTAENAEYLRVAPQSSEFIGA

Compound | IC50 (EGFR WT (Ba/F3 cells)) | IC50 [1] | IC50 [2] | IC50 [3] | IC50 [4] | IC50 [5]
COc1c(Cl)cccc1Nc1c(-c2ccnc(N)n2)[nH]c2c1C(=O)NC[C@@H]2C [186a] | 100 to 1000 nM | < 100 nM | < 100 nM | < 100 nM | < 100 nM | –
COc1c(Cl)cccc1Nc1c(-c2ccnc(N)n2)[nH]c2c1C(=O)NC[C@H]2C [186b] | 100 to 1000 nM | < 100 nM | < 100 nM | 100 to 1000 nM | < 100 nM | –
Cc1c(F)cccc1Nc1c(-c2nc(N)ncc2F)[nH]c2c1C(=O)NCC2 [Compound 689, 2-(2-amino-5-fluoropyrimidin-4-yl)-3-[(3-fluoro-2-methylphenyl)amino]-1H,5H,6H,7H-pyrrolo[3,2-c]pyridin-4-one] | – | 100 to 1000 nM | > 1000 nM | 100 to 1000 nM | > 1000 nM | –
CCOc1c(Cl)cccc1Nc1c(-c2ccnc(N)n2)[nH]c2c1C(=O)NCC2 [Compound 700, 2-(2-aminopyrimidin-4-yl)-3-[(3-chloro-2-ethoxyphenyl)amino]-1H,5H,6H,7H-pyrrolo[3,2-c]pyridin-4-one; trifluoroacetic acid] | > 1000 nM | 100 to 1000 nM | – | > 1000 nM | – | –
Nc1nccc(-c2[nH]c3c(c2Nc2ccc(Cl)cc2)C(=O)NCC3)n1 [compound 192] | > 1000 nM | > 1000 nM | – | > 1000 nM | – | –
Nc1nccc(-c2[nH]c3c(c2Nc2cccc(Cl)c2)C(=O)NCC3)n1 [compound 193] | 100 to 1000 nM | < 100 nM | – | 100 to 1000 nM | – | –
Nc1nccc(-c2[nH]c3c(c2Nc2ccccc2Cl)C(=O)NCC3)n1 [compound 194] | 100 to 1000 nM | < 100 nM | – | 100 to 1000 nM | – | –
COc1c(C)cccc1Nc1c(-c2ccnc(N)n2)[nH]c2c1C(=O)NCC2 [compound 305] | > 1000 nM | < 100 nM | – | 100 to 1000 nM | – | –
COc1c(Cl)cccc1Nc1c(-c2ccnc3ccc(OCCN(C)C)nc23)[nH]c2c1C(=O)NCC2 [compound 736, 3-[(3-chloro-2-methoxyphenyl)amino]-2-[6-[2-(dimethylamino)ethoxy]-1,5-naphthyridin-4-yl]-1H,5H,6H,7H-pyrrolo[3,2-c] pyridin-4-one; formic acid] | 100 to 1000 nM | – | < 100 nM | 100 to 1000 nM | < 100 nM | 100 to 1000 nM
COc1c(Cl)cccc1Nc1c(-c2ccnc3ccc(OCC4COC4)nc23)[nH]c2c1C(=O)NCC2 [compound 737, 3-[(3-chloro-2-methoxyphenyl)amino]-2-[6-(oxetan-3-ylmethoxy)-1,5-naphthyridin-4-yl]-1H,5H,6H,7H-pyrrolo[3,2-c] pyridin-4-one] | 100 to 1000 nM | – | < 100 nM | < 100 nM | < 100 nM | < 100 nM
COc1c(Cl)cccc1Nc1c(-c2ccnc3ccc(OCC4CN(C)C4)nc23)[nH]c2c1C(=O)NCC2 [compound 738, 3-[(3-chloro-2-methoxyphenyl)amino]-2-[6-[(1-methylazetidin-3-yl)methoxy]-1,5-naphthyridin-4-yl]-1H,5H,6H,7H-pyrrolo[3,2-c]pyridin-4-one] | 100 to 1000 nM | – | < 100 nM | 100 to 1000 nM | < 100 nM | < 100 nM
COc1c(Cl)cccc1Nc1c(-c2ccnc3ccc(O[C@H]4CCOC4)nc23)[nH]c2c1C(=O)NCC2 [compound 739, 3-[(3-chloro-2-methoxyphenyl)amino]-2-[6-[(3S)-oxolan-3-yloxy]-1,5-naphthyridin-4-yl]-1H,5H,6H,7H-pyrrolo[3,2-c]pyridin-4-one] | 100 to 1000 nM | – | < 100 nM | 100 to 1000 nM | < 100 nM | < 100 nM
COc1c(Cl)cccc1Nc1c(-c2ccnc3ccc(O[C@H]4CCCOC4)nc23)[nH]c2c1C(=O)NCC2 [compound 741, 3-[(3-chloro-2-methoxyphenyl)amino]-2-[6-[(3S)-oxan-3-yloxy]-1,5-naphthyridin-4-yl]-1H,5H,6H,7H-pyrrolo[3,2-c]pyridin-4-one; formic acid] | < 100 nM | – | < 100 nM | < 100 nM | < 100 nM | < 100 nM
COc1c(Cl)cccc1Nc1c(-c2ccnc3ccc(O[C@@H]4CCCOC4)nc23)[nH]c2c1C(=O)NCC2 [compound 742, 3-[(3-chloro-2-methoxyphenyl)amino]-2-[6-[(3R)-oxan-3-yloxy]-1,5-naphthyridin-4-yl]-1H,5H,6H,7H-pyrrolo[3,2-c]pyridin-4-one; formic acid] | 100 to 1000 nM | – | < 100 nM | < 100 nM | < 100 nM | < 100 nM
COc1c(Cl)cccc1Nc1c(-c2ccnc3ccc(O[C@@H]4CCOC4)nc23)[nH]c2c1C(=O)NCC2 [compound 743, 3-[(3-chloro-2-methoxyphenyl)amino]-2-[6-[(3R)-oxolan-3-yloxy]-1,5-naphthyridin-4-yl]-1H,5H,6H,7H-pyrrolo[3,2-c]pyridin-4-one] | 100 to 1000 nM | – | < 100 nM | < 100 nM | < 100 nM | < 100 nM
CCO[C@H](C)c1ccc2nccc(-c3[nH]c4c(c3Nc3cccc(Cl)c3OC)C(=O)NCC4)c2n1 [compound 753, 3-[(3-chloro-2-methoxyphenyl)amino]-2-[6-[(1R)-1-ethoxyethyl]-1,5-naphthyridin-4-yl]-1H,5H,6H,7H-pyrrolo[3,2-c]pyridin-4-one; trifluoroacetic acid] | < 100 nM | – | < 100 nM | < 100 nM | < 100 nM | < 100 nM
COc1c(Cl)cccc1Nc1c(-c2ccnc3ccc(OCC4(C(F)(F)F)CC4)nc23)[nH]c2c1C(=O)NCC2 [compound 758, 3-[(3-chloro-2-methoxyphenyl)amino]-2-(6-[[1-(trifluoromethyl)cyclopropyl]methoxy]-1,5-naphthyridin-4-yl)-1H,5H,6H,7H-pyrrolo[3,2-c]pyridin-4-one] | 100 to 1000 nM | – | 100 to 1000 nM | 100 to 1000 nM | 100 to 1000 nM | 100 to 1000 nM
CCOc1ccc2nccc(-c3[nH]c4c(c3Nc3cccc(Cl)c3OC)C(=O)NCC4)c2n1 [compound 761, 3-[(3-chloro-2-methoxyphenyl)amino]-2-(6-ethoxy-1,5-naphthyridin-4-yl)-1H,5H,6H,7H-pyrrolo[3,2-c]pyridin-4-one] | < 100 nM | – | < 100 nM | < 100 nM | < 100 nM | < 100 nM
COc1c(Cl)cccc1Nc1c(-c2ccnc3ccc(OCC(F)(F)F)nc23)[nH]c2c1C(=O)NCC2 [compound 763, 3-[(3-chloro-2-methoxyphenyl)amino]-2-[6-(2,2,2-trifluoroethoxy)-1,5-naphthyridin-4-yl]-1H,5H,6H,7H-pyrrolo[3,2-c]pyridin-4-one] | 100 to 1000 nM | – | < 100 nM | 100 to 1000 nM | < 100 nM | 100 to 1000 nM
